# Measurements as given in ChEMBL document CHEMBL1201862, “PubChem BioAssay data set” (2004).
#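 A five-concentration, 48-hour dose response in 96-well plates underlies each endpoint, interpolated linearly between surrounding concentrations. At the GI50, growth is halved.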 Activity calls are given as the source filed them. No stated cut-off is given here; in the data, active = GI50 up to about 1.1 µM and inactive = higher.
# Tests used:
# Assay in all cases: DTP human tumour cell line panel, 48 h
# M19-MEL = test system: M19-MEL
# M14 = test system: M14
# A498 = test system: A498
# NCI-H23 = test system: NCI-H23
# XF498 = test system: XF498
# UACC-62 = test system: UACC-62
# DMS-273 = test system: DMS-273
# UACC-257 = test system: UACC-257
# SF-295 = test system: SF-295
# U-251 = test system: U-251
# SN12C = test system: SN12C
# HCT-116 = test system: HCT-116
# NCI-H226 = test system: NCI-H226
# HCC 2998 = test system: HCC 2998
# NCI-H460 = test system: NCI-H460
# RPMI-8226 = test system: RPMI-8226
# DLD-1 = test system: DLD-1
# SNB-75 = test system: SNB-75
# SNB-78 = test system: SNB-78
# CCRF-CEM = test system: CCRF-CEM
# SK-MEL-28 = test system: SK-MEL-28
# SF-539 = test system: SF-539
# MOLT-4 = test system: MOLT-4
# HOP-62 = test system: HOP-62
# KM-20L2 = test system: KM-20L2
# IGROV-1 = test system: IGROV-1
# HT-29 = test system: HT-29
# TK-10 = test system: TK-10
# SF-268 = test system: SF-268
# SK-MEL-2 = test system: SK-MEL-2
# COLO 205 = test system: COLO 205
# OVCAR-3 = test system: OVCAR-3
# SK-OV-3 = test system: SK-OV-3
# OVCAR-8 = test system: OVCAR-8
# EKVX = test system: EKVX
# NCI-H522 = test system: NCI-H522
# Malme-3M = test system: Malme-3M
# OVCAR-4 = test system: OVCAR-4
# A549 = test system: A549
# K562 = test system: K562
# HOP-92 = test system: HOP-92
# HCT-15 = test system: HCT-15
# UO-31 = test system: UO-31
# KM12 = test system: KM12
# SK-MEL-5 = test system: SK-MEL-5
# SNB-19 = test system: SNB-19
# LOX IMVI = test system: LOX IMVI
# OVCAR-5 = test system: OVCAR-5
# 786-0 = test system: 786-0
# RXF 393 = test system: RXF 393
# ACHN = test system: ACHN
# SW-620 = test system: SW-620
# LXFL 529 = test system: LXFL 529
# CAKI-1 = test system: CAKI-1
# DMS-114 = test system: DMS-114
# HOP-18 = test system: HOP-18
# SR = test system: SR
smiles,measurement,setting,value
CC(=O)NC(CCCCNCc1ccccc1)C(=O)NCc1ccccc1 (stereo not drawn),GI50,M19-MEL,> 100 µM (inactive)
same,GI50,M14,> 100 µM (inactive)
same,GI50,A498,> 100 µM (inactive)
same,GI50,NCI-H23,> 100 µM (inactive)
same,GI50,XF498,> 100 µM (inactive)
same,GI50,UACC-62,> 100 µM (inactive)
same,GI50,DMS-273,> 100 µM (inactive)
same,GI50,UACC-257,> 100 µM (inactive)
same,GI50,SF-295,> 100 µM (inactive)
same,GI50,U-251,> 100 µM (inactive)
same,GI50,SN12C,> 100 µM (inactive)
same,GI50,HCT-116,> 100 µM (inactive)
same,GI50,NCI-H226,> 100 µM (inactive)
same,GI50,HCC 2998,> 100 µM (inactive)
same,GI50,NCI-H460,> 100 µM (inactive)
same,GI50,RPMI-8226,> 100 µM (inactive)
same,GI50,DLD-1,> 100 µM (inactive)
same,GI50,SNB-75,30.5 µM (inactive)
same,GI50,SNB-78,> 100 µM (inactive)
same,GI50,CCRF-CEM,> 100 µM (inactive)
same,GI50,SK-MEL-28,> 100 µM (inactive)
same,GI50,SF-539,> 100 µM (inactive)
same,GI50,MOLT-4,> 100 µM (inactive)
same,GI50,HOP-62,> 100 µM (inactive)
same,GI50,KM-20L2,> 100 µM (inactive)
same,GI50,IGROV-1,> 100 µM (inactive)
same,GI50,HT-29,> 100 µM (inactive)
same,GI50,TK-10,> 100 µM (inactive)
same,GI50,SF-268,> 100 µM (inactive)
same,GI50,SK-MEL-2,> 100 µM (inactive)
same,GI50,COLO 205,> 100 µM (inactive)
same,GI50,OVCAR-3,> 100 µM (inactive)
same,GI50,SK-OV-3,> 100 µM (inactive)
same,GI50,OVCAR-8,> 100 µM (inactive)
same,GI50,EKVX,> 100 µM (inactive)
same,GI50,NCI-H522,> 100 µM (inactive)
same,GI50,Malme-3M,> 100 µM (inactive)
same,GI50,OVCAR-4,> 100 µM (inactive)
same,GI50,A549,> 100 µM (inactive)
same,GI50,K562,> 100 µM (inactive)
same,GI50,HOP-92,> 100 µM (inactive)
same,GI50,HCT-15,> 100 µM
same,GI50,UO-31,> 100 µM (inactive)
same,GI50,KM12,> 100 µM (inactive)
same,GI50,SK-MEL-5,> 100 µM (inactive)
same,GI50,SNB-19,> 100 µM (inactive)
same,GI50,LOX IMVI,> 100 µM (inactive)
same,GI50,OVCAR-5,> 100 µM (inactive)
same,GI50,786-0,> 100 µM (inactive)
same,GI50,RXF 393,> 100 µM (inactive)
same,GI50,ACHN,> 100 µM (inactive)
same,GI50,SW-620,> 100 µM (inactive)
same,GI50,LXFL 529,> 100 µM (inactive)
same,GI50,CAKI-1,> 100 µM (inactive)
same,GI50,DMS-114,> 100 µM (inactive)
COCOCc1cc(OCc2ccccc2)c(OC)cc1Br,GI50,M19-MEL,> 100 µM (inactive)
same,GI50,A498,> 100 µM (inactive)
same,GI50,NCI-H23,> 100 µM (inactive)
same,GI50,XF498,> 100 µM (inactive)
same,GI50,UACC-62,71.9 µM (inactive)
same,GI50,DMS-273,64.6 µM (inactive)
same,GI50,UACC-257,> 100 µM (inactive)
same,GI50,HOP-18,> 100 µM (inactive)
same,GI50,SF-295,> 100 µM (inactive)
same,GI50,U-251,> 100 µM (inactive)
same,GI50,SN12C,> 100 µM (inactive)
same,GI50,HCT-116,> 100 µM (inactive)
same,GI50,NCI-H460,> 100 µM (inactive)
same,GI50,RPMI-8226,47 µM (inactive)
same,GI50,DLD-1,> 100 µM (inactive)
same,GI50,SNB-75,> 100 µM (inactive)
same,GI50,SNB-78,> 100 µM (inactive)
same,GI50,CCRF-CEM,> 100 µM (inactive)
same,GI50,SK-MEL-28,> 100 µM (inactive)
same,GI50,SF-539,> 100 µM (inactive)
same,GI50,HOP-62,> 100 µM (inactive)
same,GI50,KM-20L2,> 100 µM (inactive)
same,GI50,IGROV-1,> 100 µM (inactive)
same,GI50,SR,63.1 µM (inactive)
same,GI50,HT-29,> 100 µM (inactive)
same,GI50,TK-10,> 100 µM (inactive)
same,GI50,SF-268,84.9 µM (inactive)
same,GI50,SK-MEL-2,> 100 µM (inactive)
same,GI50,COLO 205,> 100 µM (inactive)
same,GI50,OVCAR-3,> 100 µM (inactive)
same,GI50,OVCAR-8,> 100 µM (inactive)
same,GI50,EKVX,> 100 µM (inactive)
same,GI50,Malme-3M,> 100 µM (inactive)
same,GI50,OVCAR-4,> 100 µM (inactive)
same,GI50,A549,> 100 µM (inactive)
same,GI50,K562,63.8 µM (inactive)
same,GI50,HOP-92,> 100 µM (inactive)
same,GI50,HCT-15,40.9 µM
same,GI50,KM12,> 100 µM (inactive)
same,GI50,SK-MEL-5,61.1 µM (inactive)
same,GI50,SNB-19,> 100 µM (inactive)
same,GI50,LOX IMVI,52.8 µM (inactive)
same,GI50,OVCAR-5,> 100 µM (inactive)
same,GI50,786-0,> 100 µM (inactive)
same,GI50,RXF 393,47.4 µM (inactive)
same,GI50,ACHN,82.6 µM (inactive)
same,GI50,SW-620,> 100 µM (inactive)
same,GI50,CAKI-1,64.3 µM (inactive)
